Each structure is given as a SMILES string. Like-named read-outs stand apart in the source and are kept apart here.

The record followed here is patent publication US4855086A, “Novel pesticides, preparation and use” (Burroughs Wellcome Co., priority 1982, dated 1989).

Data set [1] relates to gamma-aminobutyric acid (GABA) release from insect synaptosomes. Kind of data set: Release of 3H-labelled GABA from insect synaptosomes (Example H). The data set is classed as biochemical. Particulars: 1 = most potent of five compounds. An excerpt:
Interference with gamma-aminobutyric acid (GABA) release from insect synaptosomes is thought to be important in the insecticidal action of the compounds of the invention. Using published procedures (E. G. Gray and V. P. Whittaker, Journal of Anatomy 96, 79-87 (1962); G. Levi, V. Gallo and M. Raiter, Neurochemical Research 5(3), 281-295 (1980)), compounds of Formula I were compared with related compounds outside the scope of the invention.
Arranged in decreasing order of potency (release of ^3 H-labelled GABA), the compounds were: […]

In data set [2] the test system is third instar larvae of Aedes aegypti. Briefly: Exposure of mosquito larvae to aqueous suspension with piperonyl butoxide (Example D). The format is in vivo. The note with it: 2.5 (+12.5 pb) ppm; 18 hours. As for the experimental part:
Mortality was assessed after 18 hours.

The next data set relates to male Blattella germanica. Briefly: Exposure of cockroaches to deposit on glass with piperonyl butoxide (Example B). The data set is classed as in vivo. The note with it: 700 (+700 pb) mg m^-2.
The subject of data set [3] is female Musca domestica (WRL strain). Kind of data set: Topical application to houseflies with and without piperonyl butoxide pretreatment (Example A). Particulars: for percent knockdown: 6 μg applied, 1 hour; for mortality at 0.006 mg: Musca domestica, topical, 24 h. As for the experimental part: Where pretreatment with a synergist was used, the test compound was applied 1 hour after application of the synergist (6 μg piperonyl butoxide (PB) per insect). Knockdown was assessed after 1 hour, and mortality after 24 hours.

Another data set has as its system Sitophilus granarius. The data set is classed as in vivo. Particulars: 200 (+1000 pb) ppm; 6 days.
The test system of a further data set is female Aedes aegypti. Briefly: Application to adult mosquitoes with piperonyl butoxide (Example E). Particulars: 2 (4 pb) μg applied. The data set is classed as in vivo.
The subject of data set [4] is Female houseflies (Musca domestica). Kind of data set: Potentiation by other unsaturated amides in houseflies (Example G (i)). The format is in vivo. The note with it: 6 μg PB one hour earlier. The protocol: Female houseflies (Musca domestica) were treated with solutions of compounds of Formula I and a potential synergist both dissolved in butanone, the flies having been treated one hour earlier with 6 μg piperonyl butoxide (PB).
The dose required to prevent flight of half the flies 10 minutes after application of the compound (KD50) was determined and the factor of potentiation (FOP) was calculated by the Equation of the Harmonic Mean for mixtures of the compounds.

In the next data set the test system is houseflies. Kind of data set: Potentiation by pyrethroids, spray chamber, S-bioallethrin (Example G (ii)). The data set is classed as in vivo, housefly (Musca domestica). Particulars: mixture ratio 45:1. An excerpt:
Solutions of the compounds were sprayed into a chamber and houseflies released into the chamber.

For data set [5], the system named is fully engorged female B. microplus susceptible strain. Briefly: Cattle tick adult immersion test (Example F (ii), (iii)). The data set is classed as in vivo, Boophilus microplus. Particulars: adults, 10 minutes immersion, 14 days. The protocol: The compound was supplied as a 100 mg/liter solution in Esso 200/[…]. Dilution with water gave the required concentrations. Groups of 20 fully engorged female B. microplus susceptible strain were placed in a mesh basket which was immersed in the test dilution for 10 minutes. After immersion the ticks were removed, dried and then fixed to double-sided adhesive tape which was itself affixed to white plastic boards. The boards holding the ticks were held at 24° C. and 85% RH for 14 days. Individual egg masses were scored from 0-4 for quality and quantity and the total score for each group was obtained. The scores were corrected for water control oviposition, plotted on log-probit paper and the % concentration inhibiting 50% and 99% of viable oviposition determined.

A further data set concerns B. microplus Susceptible. Briefly: Larval tick immersion test, susceptible strain (Example F). The data set is classed as in vivo, Boophilus microplus. Particulars: larvae. From the text:
(§1) Larval ticks were immersed using a published method (Shaw, R. D., Cook, M. and Carson, R. E. (1968). J. Econ. Ent. 61, 1590). Mortality data are presented for B. microplus susceptible and pyrethroid resistant strain (Malchi).

Data set [6] concerns B. microplus pyrethroid resistant strain (Malchi). Briefly: Larval tick immersion test, pyrethroid resistant strain (Example F). The format is in vivo, Boophilus microplus. The note with it: larvae.
Excerpt: as §1

Data set [7] relates to fully engorged female Boophilus microplus, susceptible strain. Kind of data set: Cattle tick injection test (Example F (i)). Particulars: 14 days; for No. dead / No. laying viable eggs: 10 ticks. The data set is classed as in vivo. As for the experimental part: The compound was supplied as a […] solution in DMSO:Acetone (1:1). Administration of the compound was by means of a microapplicator which was preset to deliver 0.2 μl of solution. The compound in solution was injected into fully engorged female Boophilus microplus, susceptible strain, at a site just lateral to the mouthparts at the rate of 10 μg/tick. Reducing the concentration reduced the dose delivered. After injection the ticks were maintained at 24° C. and 85% RH for 14 days. At this time the ticks were examined for the presence of viable eggs which gave the percent inhibition of reproduction (% IR). The number of dead ticks was also noted.

[8] abbreviates: 6 μg PB pretreatment 1 hour before.
[9] abbreviates: read-out: percent mortality, 6 μg applied, 6 μg PB pretreatment 1 hour before, 24 hours.
Setting [10] is: read-out: percent mortality, 6 μg applied, synergist: none, 24 hours.

Protocol for female Aedes aegypti: Knockdown was assessed after 1 hour and mortality after 24 hours.
Protocol for male Blattella germanica: Knockdown was assessed after 10 and 60 minutes and mortality after 1 and 6 days.

Turning to `CC(C)CNC(=O)/C=C/CC/C=C\C=C\c1cccc(C(F)(F)F)c1`, the “rank in decreasing order of potency (release of ^3 H-labelled GABA)” value (“rank in decreasing order of potency” for short) in [1] came to 4.
Regarding `CC(C)CNC(=O)/C=C/CC/C=C\c1ccccc1` [Example 3, N-isobutyl-7-phenylhepta-2E,6Z-dienamide], in data set [2], the “% mortality” value is listed as 100%. Further, in the data set on male Blattella germanica, the “% knockdown 10 mins” value is recorded as 13%, the “% knockdown 60 mins” value stood at 20%, the “% mortality 1 day” value turned out to be 20% and the “% mortality 6 days” value came to 20%. In addition, the percent knockdown in data set [3] (setting [8]) amounted to 90%. For the same compound, the percent knockdown in data set [3] (synergist: none) is recorded as 5%. In addition, the mortality at 0.006 mg in data set [3] (setting [9]) amounted to 95%. The mortality at 0.006 mg in data set [3] (setting [10]) worked out at 2.5%. For the same compound, the “% mortality” value with Sitophilus granarius is 100%.
Regarding `CC(C)CNC(=O)/C=C/CC/C=C\C=C\c1ccccc1` [Example 9, N-isobutyl-9-phenyl-nona-2 (E),6(Z),8(E)-trienamide], the results for the “% mortality” value (in data set [2]; with female Aedes aegypti (24 hours); with Sitophilus granarius) were 100%, 80% and 100%, respectively. In addition, the “% knockdown 10 mins” value with male Blattella germanica is 7%. Besides, in the data set with male Blattella germanica, the “% knockdown 60 mins” value is 7%. Besides, in the data set on male Blattella germanica, the “% mortality 1 day” value was found to be 33%. For the same compound, the “% mortality 6 days” value in the data set with male Blattella germanica is listed as 40%. Besides, the “% knockdown” value with female Aedes aegypti (1 hour) is on record as 70%. The percent knockdown in data set [3] (setting [8]) amounted to 100%; in data set [3] (synergist: none) it was 95%. In addition, the mortality at 0.006 mg came to 100% in data set [3] (setting [9]) and 0% in data set [3] (setting [10]). The “KD50 (dose required to prevent flight of half the flies 10 minutes after application)” value (from here on “KD50”) in data set [4] came to 8.4 μg/fly. For the same compound, in the data set on houseflies, the “LC50 (concentration for death of half the flies)” value amounted to 1.8%. The “IR50 (% concentration inhibiting 50% of viable oviposition)” value in data set [5] was found to be 0.026%. The “IR99 (% concentration inhibiting 99% of viable oviposition)” value in data set [5] came out at 0.1%. Besides, the results for the LC50 (in data set [5]; in the data set on B. microplus Susceptible; in data set [6]) were 0.1%, 0.00044% and 0.00022%, respectively. For the same compound, in data set [1], the “rank in decreasing order of potency” value is on record as 3. For the same compound, the results for the No. dead in [7] (1 μg injected), in data set [7] (5 μg injected) and in [7] (10 μg injected) were 0, 1 and 3, respectively. For the same compound, the “No. laying viable eggs” value in data set [7] (1 μg injected) worked out at 8; in [7] (5 μg injected) it was 3; in [7] (10 μg injected), 1. In addition, the figures for the “% IR (percent inhibition of reproduction)” value in data set [7] (1 μg injected), in [7] (5 μg injected) and in data set [7] (10 μg injected) were 20%, 70% and 90%, respectively. Besides, the mortality at 0.001 mg in [7] (Rhipicephalus microplus, 336 h, 1 μg injected, read-out: % Kill) came to 0%. In addition, the mortality at 0.005 mg in data set [7] (Rhipicephalus microplus, 336 h, 5 μg injected, read-out: % Kill) worked out at 10%. In addition, in [7] (Rhipicephalus microplus, 336 h, 10 μg injected, read-out: % Kill), the mortality at 0.01 mg was 30%.
Consider `CC(C)CNC(=O)/C=C/C=C/CC/C=C\C=C\c1cccc(C(F)(F)F)c1` [Example 10, N-isobutyl-11-(3'-trifluoromethylphenyl)-(2E,4E,8Z,10E)-undecatetrenamide], for which the “KD50” value in [4] is reported as 5.6 μg/fly. In addition, in data set [1], the “rank in decreasing order of potency” value is recorded as 1.
Regarding `CCCCC/C=C/C=C/C(=O)NCC(C)C` [N--isobutyl-(2E,4E)-decadienamide, reference compound], the “KD50” value in [4] was found to be 77 μg/fly.
As to `CCCCOCCOCCOCc1cc2c(cc1CCC)OCO2` [PB, piperonyl butoxide, reference compound], in [3], the mortality at 0.006 mg amounted to 0%. Moreover, the knockdown in data set [3] (PB alone, 6 μg per fly) came to 0%.
For `C=CCC1=C(C)[C@@H](OC(=O)[C@@H]2[C@@H](C=C(C)C)C2(C)C)CC1=O` [S-bioallethrin, reference compound], the “LC50 (concentration for death of half the flies)” value in the data set on houseflies came out at 0.05%.
As for `CC(C)CNC(=O)/C=C/C=C/CC/C=C\C=C\c1ccc2c(c1)OCO2` [reference compound], in data set [1], the “rank in decreasing order of potency” value was found to be 2.
Turning to `CC(C)CNC(=O)/C=C/CC/C=C\C=C\c1ccc2c(c1)OCO2` [reference compound], the “rank in decreasing order of potency” value in data set [1] was determined as 5.
